Assay results taken from patent US5488068A, “Aminobiphenyl-4-ol anti-atherosclerotic compounds and method” (Bristol-Myers Squibb Company, priority 1994, dated 1996).

Key:
[1] = system: LDL; experiment: Ex vivo LDL oxidation susceptibility assay in hamsters after 2 weeks oral administration; details: hamster; for ex vivo LDL oxidation initial rate / ex vivo LDL oxidation lag time: oral in diet, mean of 4 to 6 hamsters
Text: (§1) The initial and later stages of LDL oxidation can be distinguished kinetically in vitro by measuring the formation of lipid conjugated diene oxidation products (ref. 10). By analogy to the behavior of antioxidants in simple single-phase systems (ref. 11), in vitro test systems were established to quantitate the protective effects of pure chemical compounds on Cu^++ -dependent LDL oxidation initial rate and lag phase. Both in vitro and ex vivo methods were employed to incorporate compounds into LDL. The magnitude of the decrease in the initial rate of conjugated diene formation was used as an estimate of the intrinsic LDL antioxidant potency of the test compound. The magnitude of the increase in lag time for the propagation phase of the oxidation chain reaction was used as an estimate of the effective concentration within LDL of the test compound. By this approach, quantitative estimation of the LDL antioxidant activity of compounds was used to identify chain-terminating antioxidants appropriate for testing in an in vivo atherosclerosis animal model.
(§2) A plasma incorporation technique was used in this procedure to test for the partitioning of a compound into LDL and its retention during LDL isolation by ultracentrifugation and dialysis. The antioxidant activity remaining in LDL was then assayed by measuring the initial rate of Cu^++ -dependent conjugated diene formation, and the lag time before extensive formation of conjugated diene oxidation products. Incorporation of test compounds into LDL in vitro was achieved by addition of an aliquot of compound (final concentration 25 μM) in DMSO to aliquots of pooled human plasma previously dialyzed overnight in buffer 1 (10 mM HEPES, 150 mM NaCl, pH 7.2) and adjusted to d=1.019 with solid KBr, and incubating for 60 min at 37°. LDL was then isolated from plasma as the ([…] to d=1.063 g/ml) fraction by standard sequential flotation techniques using KBr solution discontinuous density gradients in an ultracentrifuge by a method adapted from the original procedure of Havel (J. Clin. Invest. 34:1345). The isolated LDL was dialyzed for 1 hour into buffer 1, and aliquots were added to cuvettes at 100 μg protein/ml in buffer 1. Oxidation reactions were initiated with CuSO4 (2.5 μM) at 20°. The LDL initial oxidation rate and lag time were measured by continuous monitoring of absorbance at 234 nm in a Beckman DU-7500 spectrophotometer. The initial oxidation rate was calculated as the slope of the linear regression curve of A234 vs. time over the first ~60 min. Percent of control was calculated for test compound vs. DMSO vehicle controls. Lag time was calculated as the time corresponding to the maximum value of the first derivative of the A234 vs. time curve. The value of the lag time from the A234 vs. time curve for test compounds compared to vehicle control was expressed as percent of control. Results are given in Table 2; a decrease vs. control in the initial rate, and an increase vs. control in the lag time, reflect an active antioxidant.
Compounds were administered orally to hamsters for 2 weeks using the same diet described for the atherosclerosis studies (part D.) At 2 weeks, hamsters were fasted overnight, blood was collected, and LDL was isolated as described above (part B). The same assay methods described above (part B.) were then used to obtain ex vivo LDL oxidation initial rate and lag time values. Results are given in Table 3; a decrease vs. control in the initial rate, and an increase in the lag time, reflect an active antioxidant.

[2] = system: arterial lesion; details: animal models of atherosclerosis, high doses; cited from earlier work
[3] = system: LDL; details: animal models of atherosclerosis, high doses; cited from earlier work
[4] = system: human LDL; experiment: Primary in vitro screen: inhibition of initial rate of Cu++-dependent LDL lipid oxidation, compound directly added to LDL; assay type: biochemical; details: CuSO4 10 μM, 37°, 90 min
Text: as §1
This procedure determined the ability of test compounds added directly to LDL to inhibit the initial rate of LDL lipid oxidation monitored by conjugated diene content. The initial rate of conjugated diene formation was approximately linear with respect to time for approximately 2 hours under the conditions employed, prior to the end of the lag phase characterized by rapid propagation of the radical chain reaction and a corresponding large increase in conjugated diene content of the LDL sample. In the assay, aliquots of compounds dissolved in DMSO (and DMSO vehicle controls) were directly added to isolated human LDL (600 μg protein/mL) in Buffer 1 (10 mM HEPES, 150 mM NaCl, pH 7.2), and incubated at 37° for 60 min. Duplicate samples were then subjected to controlled oxidation by addition of CuSO4 (10 μM) and incubation at 37° for 0 or 90 min. The reaction was quenched by diluting with 5 volumes of buffer 1 plus EDTA (20 μM final) at 0° -4°. The conjugated diene levels in the LDL samples, a quantitative indicator of lipid peroxidation rate and extent, was determined spectrophotometrically by absorbance at 234 nm for each sample at 0 min and at 90 min time points of the CuSO4 incubation. […] Results are given in Table 1; a decrease vs. control reflects an active antioxidant.

[5] = system: human LDL; experiment: Secondary in vitro screen: LDL oxidation initial rate and lag time after in vitro plasma incorporation of compound into LDL; assay type: biochemical; details: 25 μM in plasma incorporation; CuSO4 2.5 μM, 20°
Text: as §1, §2

[6] = system: aortic foam cell atherosclerosis lesion; experiment: In vivo atherosclerosis model in hamsters: aortic foam cell lesion size after 10 weeks; details: hamster; for aortic lesion size: oral in diet, mean ± SEM, n=12
Procedure: Atherosclerosis in hamsters is confined initially to a lesion prone area along the inner curvature of the aortic arch. Early atherogenesis in this region is characterized by the infiltration of monocytes which become lipid-filled macrophage foam cells, which can develop into complex fibrous atheromas. Antioxidants selected from primary and secondary in vitro screens and ex vivo assays were tested for their ability to inhibit macrophage foam cell lesion formation in hamsters in 10 weeks studies. Lesion size was assayed by video microscopy/image analysis of histological specimens of the aortic arch stained with the lipophilic dye, oil red O. Hamsters were maintained on a diet deficient in vitamins E, C, and K/menadione, selenium, and carotenoids, and supplemented with vitamin E-stripped corn oil (10%) and cholesterol (0.4%). This diet amplified oxidant stress while only moderately elevating plasma cholesterol and LDL levels. Test compounds were administered in this diet fed ad libitum for 10 weeks. The dosages are given as mg/kg/day based on food consumption measurements and weight of the animals at the end of the 10 week dosing period. […] Results are given in Table 4; a decrease in lesion size relative to control indicates an effective anti-atherosclerotic agent.

[7] = system: aortic lesions; details: cited from earlier work
[8] = system: LDL; details: rabbit, in vivo; cited from earlier work

Row | SMILES | LDL oxidation initial rate ([4]; 1.0 μM) | LDL oxidation initial rate [5] | LDL oxidation lag time [5] | aortic lesions in rabbits [7] | protection of LDL from oxidation [8] | ex vivo LDL oxidation initial rate ([1]; 60 mg/kg/day) | ex vivo LDL oxidation lag time ([1]; 60 mg/kg/day) | further results
1 | CC(C)(Sc1cc(C(C)(C)C)c(O)c(C(C)(C)C)c1)Sc1cc(C(C)(C)C)c(O)c(C(C)(C)C)c1 [probucol] | 79 % of control | 17.6 % of control | 293 % of control |  |  |  |  | ex vivo LDL oxidation initial rate ([1]; 120 mg/kg/day): 70 % of control; ex vivo LDL oxidation lag time ([1]; 120 mg/kg/day): 141 % of control; arterial lesion size [2]: decreased arterial lesion size; oxidation of LDL in vivo [3]: decrease oxidation of LDL in vivo; aortic lesion size ([6]; 120 mg/kg/day): 59.4 ± 6.4 % of control
2 | c1ccc(Nc2ccc(Nc3ccccc3)cc2)cc1 [N,N'-diphenylphenylenediamine (DPPD), N,N'-diphenylphenylenediamine] |  |  |  | decrease aortic lesions in rabbits | protect LDL from oxidation |  |  | 
3 | Cc1cc(C(C)(C)C)c(O)c(C(C)(C)C)c1 [butylated hydroxytoluene (BHT), butylated hydroxytoluene] |  |  |  | decrease aortic lesions in rabbits | protect LDL from oxidation |  |  | 
4 | CN(C)c1cc(-c2ccccc2)ccc1O [Example 1, 3-(Dimethylamino)[1,1'-biphenyl]-4-ol] | 42.2 % of control | 17.9 % of control | 237 % of control |  |  | 17 % of control | 482 % of control | ex vivo LDL antioxidant activity relative to probucol and BHA ([1]; oral): markedly more active in this model than the reference agents probucol and BHA; LDL oxidation initial rate ([4]; 0.30 μM): 66.2 % of control; LDL oxidation initial rate ([4]; 3.0 μM): 34.0 % of control; LDL oxidation initial rate ([4]; 10 μM): 1.7 % of control; anti-atherosclerotic effectiveness relative to probucol ([6]; oral): markedly more effective than the reference agent probucol; aortic lesion size ([6]; 3 mg/kg/day): 71.7 ± 13.7 % of control; aortic lesion size ([6]; 60 mg/kg/day): 46.2 ± 6.2 % of control
5 | COc1ccc(O)c(C(C)(C)C)c1 [BHA, butylated hydroxyanisole] | 16 % of control | 11.0 % of control | 239 % of control |  |  | 77 % of control | 116 % of control | 
